Reference: article PMC10258794, “To Fold or Not to Fold: Diastereomeric Optimization of an α-Helical Antimicrobial Peptide” (Journal of Medicinal Chemistry, 2023)
Values after ≈ are worked out from the molar mass of the structure shown. Like-named read-outs stand apart in the source and are kept apart here.

Tests used:
Staphylococcus epidermis = test: MIC broth microdilution, Staphylococcus epidermis; type: cell-based; conditions: pH 7.4
Procedure: (§1) Antimicrobial activity was determined for all peptides on E. coli W3110, P. aeruginosa PAO1, A. baumannii ATCC19606, K. pneumoniae NCTC418, and methicillin-resistant S. aureus COL and for selected peptides on P. aeruginosa PA14 and the polymyxin B-resistant derivatives PA14 4.13, PA14 4.18, and PA14 2P4 as well as the clinical isolates ZEM-1A and ZEM9A, K. pneumoniae OXA-48, Enterobacter cloacae, Stenotrophomonas maltophilia, B. cenocepacia, and Staphylococus epidermis. To determine the MIC, the broth microdilution method was used.[75] A single bacterial colony was grown in LB medium overnight at 37 °C and 180 rpm shaking. The compounds were prepared as stock solutions of 2 mg/mL in sterilized milliQ deionized water, added to the first well of 96-well sterile, polypropylene round-bottom microtiter plates (TPP, untreated, Corning Incorporated, Kennebunk, USA), and diluted serially by 1/2. […] The bacterial inoculum was prepared by measuring the absorbance of the overnight culture, which was diluted to concentration of the bacteria was quantified by measuring absorbance at 600 nm and diluted to an OD600 of 0.022 in MH medium pH 7.4 (Sigma-Aldrich, Buchs, Switzerland). The sample solutions (150 μL) were mixed with 4 μL of diluted bacterial suspension with a final inoculation of about 5 × 10^5 CFU. For each test, two columns of the plate were kept for sterility control (MH medium only) and growth control (MH medium with bacterial inoculum, no compound). […] The plates were incubated at 37 °C for 16–20 h under static conditions. 15 μL of 3-(4,5-dimethylthiazol-2-yl)-2,5-diphenyltetrazolium bromide (MTT)[76] (1 mg/mL in sterilized milliQ deionized water) was added to each well, and the plates were incubated at room temperature until MTT staining was completed. The MIC was defined as the lowest concentration of the dendrimer that inhibits the visible growth of the tested bacteria (yellow) with the unaided eye.

K. pneumoniae Oxa-48 = test: MIC broth microdilution, K. pneumoniae Oxa-48; type: cell-based, Klebsiella pneumoniae; conditions: MDR strain; MH broth pH 7.4, 16–20 h, 37 °C
Procedure: as §1

A. baumannii ATCC19606 = test system: A. baumannii ATCC19606
Procedure: as §1

E. coli W3110 = conditions: MH broth pH 7.4, 16–20 h, 37 °C
Procedure: as §1

K. pneumoniae NCTC418 = test system: K. pneumoniae NCTC418
Procedure: as §1

P. aeruginosa PAO1 = test system: P. aeruginosa PAO1
Procedure: as §1

S. aureus COL MRSA = conditions: for MIC S. aureus COL MRSA: MH broth pH 7.4, 16–20 h, 37 °C; for MIC S. aureus COL: supplementary CSV, ranges of Table 1 given as one number
Procedure: as §1

S. aureus Newman = conditions: for MIC S. aureus Newman: MH broth pH 7.4, 16–20 h, 37 °C; for MIC S. aureus Newmann: supplementary CSV
A549 cells = test: Alamar blue cytotoxicity, A549; type: cell-based, human; conditions: 24 h, mean ± SD, n = 3, read-out: Toxicity on A549 lung cancern cells
Procedure: (§2) The A549 human lung adenocarcinoma cells are derived from a patient and were kindly given to us by Dr. Georgia Konstatinidou (Pharmacology Institute, Bern University). HEK293T cells were obtained from ATCC (CRL-11268). A549 and HEK293 were cultured in an incubator at 37 °C with 5% CO2 in RPMI-1640 (Gibco) and DMEM (Gibco) containing 10% fetal bovine serum (Thermo Fisher), 100 I.U./mL penicillin, and 100 μg/mL streptomycin (Gibco).
(§3) The viability of the cells was assessed with an AlamarBlue assay (ThermoFisher). Cells were seeded into 96-well plates, 4000 cells/well (HEK293) and 8000 cells/well (A549), the day before the experiment. Cells were then treated with the increasing concentration of the compound and incubated for 24 h at 37 °C in the presence of 5% CO2. The next day, the medium was removed and replaced by a 10% AlamarBlue solution in full growth medium (DMEM or RPMI-1640). The cells were incubated for 3–5 h at 37 °C with 5% CO2 in a humidified atmosphere. The fluorescence was then measured on a Tecan Infinite M1000 Pro plate reader at λex 560 nm and λem 590 nm. The value was normalized according to the untreated cells.

PA14 4.13 (phoQ) = test: microbe, parasite or virus in culture; conditions: supplementary CSV
Procedure: as §1

PA14 2P4 (pmrB) = test: microbe, parasite or virus in culture; conditions: supplementary CSV
Procedure: as §1

P. aeruginosa ZEM-1A = test: microbe, parasite or virus in culture; conditions: pH 7.4
Procedure: as §1

P. aeruginosa PA14 = test: microbe, parasite or virus in culture; conditions: for MIC PA14: MH broth pH 7.4, 16–20 h, 37 °C; for MIC P. aeruginosa PA14: supplementary CSV
Procedure: as §1

Enterobacter cloacae = test: microbe, parasite or virus in culture; conditions: pH 7.4
Procedure: as §1

Burkolderia cenocepacia = test: microbe, parasite or virus in culture; conditions: MDR strain; MH broth pH 7.4, 16–20 h, 37 °C
Procedure: as §1

PA14 4.18 (pmrB) = test: microbe, parasite or virus in culture; conditions: supplementary CSV
Procedure: as §1

[1] = test system: Stenotrophomonas maltophilia; test: microbe, parasite or virus in culture; type: cell-based; conditions: pH 7.4
Procedure: as §1

HEK293 cells = test: Alamar blue cytotoxicity, HEK293; type: cell-based, human; conditions: 24 h, mean ± SD, n = 3, read-out: Toxicity on HEK293 cells
Procedure: as §2, §3

P. aeruginosa ZEM9A = test: microbe, parasite or virus in culture; type: cell-based, Pseudomonas aeruginosa; conditions: pH 7.4
Procedure: as §1

[2] = MH broth pH 7.4, 16–20 h, 37 °C
[3] = supplementary CSV, ranges of Table 1 given as one number

SMILES | MIC Staphylococcus epidermis (Staphylococcus epidermis) [µg/mL] | MIC K. pneumoniae Oxa-48 (K. pneumoniae Oxa-48) [µg/mL] | MIC A. baumannii ATCC19606 (A. baumannii ATCC19606; [2]) [µg/mL] | MIC A. baumannii ATCC19606 (A. baumannii ATCC19606; [3]) [µg/mL] | MIC E. coli W3110 (E. coli W3110) [µg/mL] | MIC K. pneumoniae NCTC418 (K. pneumoniae NCTC418; [2]) [µg/mL] | MIC K. pneumoniae NCTC418 (K. pneumoniae NCTC418; [3]) [µg/mL] | MIC P. aeruginosa PAO1 (P. aeruginosa PAO1; [2]) [µg/mL] | MIC P. aeruginosa PAO1 (P. aeruginosa PAO1; [3]) [µg/mL] | MIC S. aureus COL MRSA (S. aureus COL MRSA) [µg/mL] | MIC S. aureus COL (S. aureus COL MRSA) [µg/mL] | MIC S. aureus Newman (S. aureus Newman) [µg/mL] | MIC S. aureus Newmann (S. aureus Newman) [µg/mL] | MIC P. aeruginosa PA14 4.13 (PA14 4.13 (phoQ)) [µg/mL] | MIC P. aeruginosaPA14 2P4 (PA14 2P4 (pmrB)) [µg/mL] | MIC ZEM-1A (P. aeruginosa ZEM-1A) [µg/mL] | MIC PA14 (P. aeruginosa PA14) [µg/mL] | MIC P. aeruginosa PA14 (P. aeruginosa PA14) [µg/mL] | MIC Enterobacter cloacae (Enterobacter cloacae) [µg/mL] | MIC Burkolderia cenocepacia (Burkolderia cenocepacia) [µg/mL] | other results
CC(C)C[C@H](NC(=O)[C@H](CC(C)C)NC(=O)[C@H](CC(C)C)NC(=O)[C@H](CCCCN)NC(=O)[C@H](CC(C)C)NC(=O)[C@H](CC(C)C)NC(=O)[C@H](CCCCN)NC(=O)[C@H](CC(C)C)NC(=O)[C@H](CC(C)C)NC(=O)[C@@H](CCCCN)NC(=O)[C@@H](N)CCCCN)C(N)=O [HP1] | 2 (≈ 1.51 µM) | 8 (≈ 6.05 µM) | 4 (≈ 3.03 µM) | 4 (≈ 3.03 µM) | 2 (≈ 1.51 µM) | 4 to 8 | 6 (≈ 4.54 µM) | 4 (≈ 3.03 µM) | 4 (≈ 3.03 µM) | 2 (≈ 1.51 µM) | 2 (≈ 1.51 µM) | 2 (≈ 1.51 µM) | 2 (≈ 1.51 µM) | 4 (≈ 3.03 µM) | 64 (≈ 48.4 µM) | 2 (≈ 1.51 µM) | 2 (≈ 1.51 µM) | 2 (≈ 1.51 µM) | 2 (≈ 1.51 µM) | >64 | IC50 (A549 cells): 2.7 ± 2.4 µM; MIC P. aeruginosa PA14 4.18 (PA14 4.18 (pmrB)): 32 µg/mL (≈ 24.2 µM); MIC Stenotrophomonas maltophilia [1]: 4 µg/mL (≈ 3.03 µM); IC50 (HEK293 cells): 42.9 ± 2.6 µM; MIC ZEM9A (P. aeruginosa ZEM9A): 4 µg/mL (≈ 3.03 µM)
CC(C)C[C@H](NC(=O)[C@H](CC(C)C)NC(=O)[C@H](CC(C)C)NC(=O)[C@H](CCCCN)NC(=O)[C@H](CC(C)C)NC(=O)[C@H](CC(C)C)NC(=O)[C@H](CCCCN)NC(=O)[C@H](CC(C)C)NC(=O)[C@H](CC(C)C)NC(=O)[C@@H](CCCCN)NC(=O)[C@H](N)CCCCN)C(N)=O [HP2] | 2 (≈ 1.51 µM) | 2 (≈ 1.51 µM) | 4 (≈ 3.03 µM) | 4 (≈ 3.03 µM) | 4 (≈ 3.03 µM) | 2 to 4 | 3 (≈ 2.27 µM) | 4 (≈ 3.03 µM) | 4 (≈ 3.03 µM) | 4 (≈ 3.03 µM) | 4 (≈ 3.03 µM) | 2 (≈ 1.51 µM) | 2 (≈ 1.51 µM) | 4 (≈ 3.03 µM) | 64 (≈ 48.4 µM) | 2 (≈ 1.51 µM) | 2 (≈ 1.51 µM) | 2 (≈ 1.51 µM) | 2 (≈ 1.51 µM) | >64 | MIC P. aeruginosa PA14 4.18 (PA14 4.18 (pmrB)): 32 µg/mL (≈ 24.2 µM); MIC Stenotrophomonas maltophilia [1]: 2 µg/mL (≈ 1.51 µM); MIC ZEM9A (P. aeruginosa ZEM9A): 4 µg/mL (≈ 3.03 µM)
